Legend:
[1] = test system: wild-type HIV-1 (LAI strain); experiment: anti-viral cellular assay, HIV-infected MT4 cells, MTT readout, wild-type virus; assay type: cell-based; conditions: Human immunodeficiency virus 1, 120 h, five days
Experimental: The test compounds are examined for anti-viral activity in a cellular assay performed according to the following procedure.
(§1) HIV- or mock-infected MT4 cells were incubated for five days in the presence of various concentrations of the test compound. At the end of the incubation period, the replicating virus in the control cultures had killed all HIV-infected cells in the absence of any inhibitor. Cell viability was determined by measuring the concentration of MTT, a yellow, water soluble tetrazolium dye that is converted to a purple, water insoluble formazan in the mitochondria of living cells only. Upon solubilization of the resulting formazan crystals with isopropanol, the absorbance of the solution was monitored at 540 nm. The values correlate directly to the number of living cells remaining in the culture at the completion of the five day incubation. The inhibitory activity of the compound was monitored on the virus-infected cells and was expressed as EC50 and EC90. These values represent the amount of the compound required to protect 50% and 90%, respectively, of the cells from the cytopathogenic effect of the virus. […] Wherever results are reported as e.g. pEC50 or pCC50 values, the result is expressed as the negative logarithm of the result expressed as EC50 or CC50 respectively.

[2] = molecular target: T1, HIV Reverse Transcriptase (Human immunodeficiency virus type 1 group M subtype B, UniProt P04585); experiment: in vitro inhibition of HIV reverse transcriptase in presence and absence of ATP or other nucleoside phosphates (kit TRK 1022); assay type: biochemical
T1 construct: purchased Amersham Life Sciences TRK 1022
Experimental: The assay was run using kit TRK 1022™ (Amersham Life Sciences) according to the manufacturer's instructions with slight modifications. Test compounds were diluted in steps of ¼ in 100% DMSO and subsequently diluted 1/50 in Medium A (RPMI 1640+10% fetal calf serum, […] gentamycin).
In each experiment three conditions were tested: wells filled with 25 μl of the above compound solutions, wells filled with 25 μl 2% DMSO in Medium A (RO) and wells filled with 100 μl Stopsolution and 25 μl DMSO in Medium A (RI). To each well was added 25.5 μl master mix (5 μl primer/template beads, 10 μl assay buffer, 0.5 μl tracer (50 μM [3H]-dTTP), 5 μl HIV RT enzyme solution (15 mU/μl), 5 μl Medium A). The plates were sealed, and incubated during 4 hours at 37° C. Subsequently, 100 μl stop solution was added to each well (except RI). The radioactivity was counted in a TopCount™.
For testing compound inhibition in the presence of ATP the same protocol as above was used but the Medium A in the master mix was replaced with Medium A containing 320 mM ATP.
The procedures of example 1 were repeated but ATP was changed by a number of other nucleoside phosphates. The following table lists the tested nucleoside phosphates and the IC50 values in μM of compound 1 obtained in the presence of the concerned nucleoside phosphate.

HIV RT = HIV RT (Human immunodeficiency virus type 1 group M subtype B, UniProt P04585); experiment: enzyme kinetics studies (1/v versus 1/[dTTP]); assay type: biochemical; conditions: 40-3 μM dTTP, 2-0 μM compound, poly(rA)oligo(dT); lines cross at Y-axis intercept
Experimental: The enzyme kinetics studies were carried out using a protocol involving a 4×5 matrix of varying substrate and inhibitor concentrations over ranges of 40-3 μM of dTTP and 2-0 μM of compound 1.
The reaction mixtures (50 μl) further contained 50 mM Tris.HCl (pH 7.8), 5 mM dithiothreitol, […], 500 μM EDTA, 150 mM KCl, 5 mM MgCl2, 0.15 mM of the template/primer poly(rA)oligo(dT) and 0.06% Triton X-100.
The reaction mixtures were incubated at 37° C. for 15 min, at which time 100 μl of calf thymus DNA (150 pg/ml), 2 ml of Na4P2O7 (0.1 M in 1 M HCl), and 2 ml of trichloroacetic acid (10% v/v) were added. The solutions were kept on ice for 30 min, after which the acid-insoluble material was washed and analyzed for radioactivity. When the reciprocal of the reaction velocity (1/v) is plotted against the reciprocal of the substrate concentration (1/[dTTP]) in the presence of different concentrations of compound 1, the graph (See FIG. 1) is obtained.

[3] = test system: site-directed mutant of wild-type HIV-1 (HXB2) that contains the K103N and Y181C mutation; experiment: anti-viral cellular assay, MT4 cells, MTT readout, NNRTI-resistant mutant virus; assay type: cell-based; conditions: Human immunodeficiency virus 1, HXB2, MT4
Experimental: as §1, with “virus. The toxicity of the compound was measured on the mock-infected cells and was expressed as CC50, which represents the concentration of compound required to inhibit the growth of the cells by 50%.” for “virus.”, “respectively. […]” for “respectively.”

`Cn1c2ccccc2c2c1cc(C#N)c(=O)n2-c1ccc([N+](=O)[O-])cc1` [Compound 1] was tested. Which EC50 [1] did it give?
The EC50 was 45 nM.

What about the IC50 ([2]; in the absence of ATP) of the same molecule?
Its IC50 is 300 nM.

What about the IC50 ([2]; in the presence of ADP) of the same molecule?
The IC50 was 23 nM.

What about the IC50 ([2]; in the presence of AMP) of the same molecule?
Its IC50 is 17.8 nM.

And the IC50 ([2]; in the presence of ATP (Medium A in master mix containing 320 mM ATP))?
Its IC50 is 16 nM.

What about the IC50 ([2]; in the presence of ATPbgNH) of the same molecule?
Its IC50 is 24.5 nM.

And the IC50 ([2]; in the presence of ATPgS)?
Its IC50 is 12.4 nM.

What about the IC50 ([2]; in the presence of CTP) of the same molecule?
Its IC50 is 114 nM.

And the IC50 ([2]; in the presence of GTP)?
Its IC50 is 70.4 nM.

And the IC50 ([2]; in the presence of PPi)?
Its IC50 is 199 nM.

And the IC50 ([2]; in the presence of UTP)?
The IC50 was 51.9 nM.

What about the “mode of HIV RT inhibition” value (HIV RT) of the same molecule?
The value was “competitive mode of HIV RT inhibition”.

What about the EC50 [3] of the same molecule?
Its EC50 is 98 nM.

Reference: patent US20080138812A1, “Screening Method For Competitive Hiv Rt Inhibitors” (priority 2005, published 2008)
